{
  "source": "patent US5252570A",
  "about": "“Amidino and guanidino derivatives” (B.I. Italia, priority 1988, dated 1993)",
  "target": "T1, 5-HT3 receptors (Rattus norvegicus, UniProt P35563)",
  "T1 construct": "from tissue; host or cells: whole anesthetized rat (in vivo)",
  "T1 sequence (P35563 24-483)": "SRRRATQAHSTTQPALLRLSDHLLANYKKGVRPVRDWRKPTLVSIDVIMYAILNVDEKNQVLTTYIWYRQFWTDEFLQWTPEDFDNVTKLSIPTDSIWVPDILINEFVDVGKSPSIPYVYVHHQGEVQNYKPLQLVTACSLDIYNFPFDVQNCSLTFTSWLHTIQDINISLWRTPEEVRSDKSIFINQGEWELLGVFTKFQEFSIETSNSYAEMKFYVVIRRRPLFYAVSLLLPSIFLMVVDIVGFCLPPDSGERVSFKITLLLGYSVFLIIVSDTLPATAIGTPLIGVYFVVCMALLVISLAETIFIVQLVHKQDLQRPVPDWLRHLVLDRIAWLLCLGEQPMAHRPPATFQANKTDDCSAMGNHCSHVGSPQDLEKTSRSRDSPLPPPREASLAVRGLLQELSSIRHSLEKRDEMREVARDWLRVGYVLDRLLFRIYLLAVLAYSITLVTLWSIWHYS",
  "test": "Bezold-Jarish reflex in anesthetized rats (serotonin-induced bradycardia and hypotension)",
  "format": "in vivo",
  "conditions": "iv, antagonist injected 5 min before serotonin (20 μg/kg i.v.), urethane-anesthetized rats",
  "source_text": "As already mentioned hereinbefore the new compounds of formula (I), according to the present invention, have interesting pharmacological properties owing to their ability to antagonize the physiological 5-HT effects at 5-HT3 receptors in warm-blooded animals. Therefore the new compounds are commercially useful in the prevention and in the treatment of disorders wherein 5-HT3 receptors are involved, such as chemotherapy or radiation induced nausea and emesis, migraine, delayed gastric emptying, stress-induced psychological disorders, irritable bowel syndrome, arrhytmia and rhinitis.\nBezold-Jarish Reflex in Anesthetized Rats\nRats (250-275 g) were anesthetized with urethane (1.25 g/kg ip.). The blood pressure and the heart rate were recorded from the left femoral artery by means of a pressure transducer (Statham) connected with a cardiotachometer. The Bezold-Jarish reflex was elicited by rapid intravenous injection of serotonin (20 μg/kg).\nIncreasing doses of antagonists were injected 5 min. before serotonin to evaluate their effect on the initial bradycardia and associated fall in blood pressure resulting from the reflex vagal stimulation. In other experiments, the right vagus nerve was stimulated with platinum electrodes at 10 V, 10 Hz, 2 msec, (Grass 248 stimulator), to evoke bradycardia. ED50 values were calculated by linear regression analysis of the data expressed as percentage inhibition.",
  "key": {"[1]": {"conditions": "inhibition of fall in blood pressure, read-out: Hypotension ED50"}},
  "note": "Counter-ions that a name gives are not always drawn. Like-named read-outs stand apart in the source and are kept apart here.",
  "data": [
    {"smiles": "N=CN1[C@@H]2CC[C@H]1C[C@@H](OC(=O)c1cc(Cl)cc(Cl)c1)C2", "note": "[Compound 15, endo-(8-Iminomethyl-8-azabicyclo-[3.2.1]oct-3-yl)-3,5-dichlorobenzoate hydrochloride]", "values": [
      {"measurement": "ED50", "setting": "[1]", "result": 0.5, "unit": "µg/kg"},
      {"measurement": "ED50", "setting": "inhibition of initial bradycardia, read-out: Bradycardia ED50", "result": 0.2, "unit": "µg/kg"}
    ]},
    {"smiles": "N=CN1[C@@H]2CC[C@H]1C[C@@H](OC(=O)c1c[nH]c3ccccc13)C2", "note": "[Compound 16, endo-8-(Iminomethyl-8-azabicyclo[3.2.1]oct-3-yl)-1H-indol-3-carboxylate hydrochloride]", "values": [
      {"measurement": "ED50", "setting": "[1]", "result": 0.3, "unit": "µg/kg"}
    ]}
  ]
}
